Source: patent US20230416205A1, “COMPOUNDS, COMPOSITIONS, AND METHODS” (Denali Therapeutics Inc, priority 2020, published 2023)
pIC50: −log10 of the molar value. Read-outs that look alike come from different tables or passages of the source.

Tested on: NLRP3
Experiment: IL-1β secretion assay in PMA-differentiated, LPS/nigericin-stimulated THP-1 cells (384-well, ELISA read-out)
Assay type: cell-based, human
Conditions: Homo sapiens
Outline: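 THP-1 cells differentiated with PMA (5 ng/mL, 40 h), primed in serum-free medium with 25 ng/mL LPS for 2 h, treated with compounds 1 h (0.5% DMSO), then stimulated with nigericin for 2 h at 37 °C. Supernatant IL-1β measured by ELISA; responses normalized to LPS+5 μM nigericin and LPS-only controls.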

[1] = THP-1, Table 4, IL-1β secretion, LPS/nigericin-stimulated THP-1 cells, read-out: IC50

## O=C(CN1CC2(CC2)c2cc(C(F)(F)F)cc(Cl)c2C1=O)Nc1ncc(F)cn1 [Example 354, 2-[8-chloro-1-oxo-6-(trifluoromethyl)spiro[3H-isoquinoline-4,1′-cyclopropane]-2-yl]-N-(5-fluoropyrimidin-2-yl)acetamide]
[1]
  pIC50: 4.62

## O=C(CN1CC2(CC2)c2cc(Br)ccc2C1=O)N[C@@H]1CCN(Cc2ccccc2)C1 [Example 355, N-[(3R)-1-benzylpyrrolidin-3-yl]-2-(6-bromo-1-oxospiro[3H-isoquinoline-4,1′-cyclopropane]-2-yl)acetamide]
[1]
  pIC50: 5.30

## N#Cc1cccc2oc(NC(=O)CN3CC4(CC4)c4cc(Br)ccc4C3=O)nc12 [Example 356, 2-(6-bromo-1-oxospiro[3H-isoquinoline-4,1′-cyclopropane]-2-yl)-N-(4-cyano-1,3-benzoxazol-2-yl)acetamide]
[1]
  pIC50: 5.64

## O=C(CN1CC2(CC2)c2cc(Br)ccc2C1=O)NC1CC(OCc2ccccc2)C1 (stereo not drawn) [Example 357, 2-(6-bromo-1-oxospiro[3H-isoquinoline-4,1′-cyclopropane]-2-yl)-N-(3-trans-phenylmethoxycyclobutyl)acetamide]
[1]
  pIC50: 5.28

## O=C(CN1CC2(CC2)c2cc(Br)ccc2C1=O)Nc1nc2cc(C(F)(F)F)ccc2o1 [Example 358, 2-(6-bromo-1-oxospiro[3H-isoquinoline-4,1′-cyclopropane]-2-yl)-N-[5-(trifluoromethyl)-1,3-benzoxazol-2-yl]acetamide]
[1]
  pIC50: 5.89

## O=C(CN1CC2(CC2)c2cc(Br)ccc2C1=O)Nc1ncc(C2CCCO2)cn1 (stereo not drawn) [Example 359, 2-(6-bromo-1-oxospiro[3H-isoquinoline-4,1′-cyclopropane]-2-yl)-N-[5-(oxolan-2-yl)pyrimidin-2-yl]acetamide]
[1]
  pIC50: 6.22

## CN1CCC[C@@H](NC(=O)CN2CC3(CC3)c3cc(Br)ccc3C2=O)C1 [Example 360, 2-(6-bromo-1-oxospiro[3H-isoquinoline-4,1′-cyclopropane]-2-yl)-N-[(3R)-1-methylpiperidin-3-yl]acetamide]
[1]
  pIC50: 5.46

## O=C(CN1CC2(CC2)c2cc(Br)ccc2C1=O)Nc1nc2ccc(C(F)(F)F)cc2o1 [Example 361, 2-(6-bromo-1-oxospiro[3H-isoquinoline-4,1′-cyclopropane]-2-yl)-N-[6-(trifluoromethyl)-1,3-benzoxazol-2-yl]acetamide]
[1]
  pIC50: 6.07

## O=C(CN1CC2(CC2)c2cc(Br)ccc2C1=O)Nc1cc2n(n1)CCOC2 [Example 362, 2-(6-bromo-1-oxospiro[3H-isoquinoline-4,1′-cyclopropane]-2-yl)-N-(6,7-dihydro-4H-pyrazolo[5,1-c][1,4]oxazin-2-yl)acetamide]
[1]
  pIC50: 5.84

## O=C(CN1CC2(CC2)c2cc(Br)ccc2C1=O)Nc1nccc2nccn12 [Example 363, 2-(6-bromo-1-oxospiro[3H-isoquinoline-4,1′-cyclopropane]-2-yl)-N-imidazo[1,2-c]pyrimidin-5-ylacetamide]
[1]
  pIC50: 5.18

## O=C(CN1CC2(CC2)c2cc(Br)ccc2C1=O)Nc1ncc(N2CCCC2)cn1 [Example 364, 2-(6-bromo-1-oxospiro[3H-isoquinoline-4,1′-cyclopropane]-2-yl)-N-(5-pyrrolidin-1-ylpyrimidin-2-yl)acetamide]
[1]
  pIC50: 5.59

## O=C(CN1CC2(CC2)c2cc(Br)ccc2C1=O)N[C@@H]1CCCN(C2COC2)C1 [Example 365, 2-(6-bromo-1-oxospiro[3H-isoquinoline-4,1′-cyclopropane]-2-yl)-N-[(3R)-1-(oxetan-3-yl)piperidin-3-yl]acetamide]
[1]
  pIC50: 5.67

## O=C(CN1CC2(CC2)c2cc(Br)ccc2C1=O)NC1CCN(CCC(F)(F)F)CC1 [Example 366, 2-(6-bromo-1-oxospiro[3H-isoquinoline-4,1′-cyclopropane]-2-yl)-N-[1-(3,3,3-trifluoropropyl)piperidin-4-yl]acetamide]
[1]
  pIC50: 4.72

## O=C(CN1CC2(CC2)c2cc(Br)ccc2C1=O)NC1CCN(CC(F)F)CC1 [Example 367, 2-(6-bromo-1-oxospiro[3H-isoquinoline-4,1′-cyclopropane]-2-yl)-N-[1-(2,2-difluoroethyl)piperidin-4-yl]acetamide]
[1]
  pIC50: 4.93

## Cc1cc(NC(=O)CN2CC3(CC3)c3cc(Br)ccc3C2=O)nc2ccnn12 [Example 368, 2-(6-bromo-1-oxospiro[3H-isoquinoline-4,1′-cyclopropane]-2-yl)-N-(7-methylpyrazolo[1,5-a]pyrimidin-5-yl)acetamide]
[1]
  pIC50: 5.80

## O=C(CN1CC2(CC2)c2cc(Br)ccc2C1=O)NC1CCN(c2cccnc2)CC1 [Example 369, 2-(6-bromo-1-oxospiro[3H-isoquinoline-4,1′-cyclopropane]-2-yl)-N-(1-pyridin-3-ylpiperidin-4-yl)acetamide]
[1]
  pIC50: 5.19

## CN1CCC(NC(=O)CN2CC3(CC3)c3cc(Br)ccc3C2=O)CC12CC2 (stereo not drawn) [Example 370, 2-(6-bromo-1-oxospiro[3H-isoquinoline-4,1′-cyclopropane]-2-yl)-N-(4-methyl-4-azaspiro[2.5]octan-7-yl)acetamide]
[1]
  pIC50: 5.22

## Cn1cnc(NC(=O)CN2CC3(CC3)c3cc(Br)ccc3C2=O)n1 [Example 371, 2-(6-bromo-1-oxospiro[3H-isoquinoline-4,1′-cyclopropane]-2-yl)-N-(1-methyl-1,2,4-triazol-3-yl)acetamide]
[1]
  pIC50: 5.84

## O=C(CN1CC2(CC2)c2cc(Br)ccc2C1=O)NC1CN2CCC1CC2 (stereo not drawn) [Example 372, N-(1-azabicyclo[2.2.2]octan-3-yl)-2-(6-bromo-1-oxospiro[3H-isoquinoline-4,1′-cyclopropane]-2-yl)acetamide]
THP-1
  pIC50: 4.65

## O=C(CN1CC2(CC2)c2cc(Br)ccc2C1=O)Nc1nc2n(n1)CCCC2 [Example 373, 2-(6-bromo-1-oxospiro[3H-isoquinoline-4,1′-cyclopropane]-2-yl)-N-(5,6,7,8-tetrahydro-[1,2,4]triazolo[1,5-a]pyridin-2-yl)acetamide]
[1]
  pIC50: 5.80

## O=C(CN1CC2(CC2)c2cc(Br)ccc2C1=O)Nc1ccn2ccnc2n1 [Example 374, 2-(6-bromo-1-oxospiro[3H-isoquinoline-4,1′-cyclopropane]-2-yl)-N-imidazo[1,2-a]pyrimidin-7-ylacetamide]
[1]
  pIC50: 5.02

## O=C(CN1CC2(CC2)c2cc(Br)ccc2C1=O)NC1CCN(CC(F)(F)F)CC1 [Example 375, 2-(6-bromo-1-oxospiro[3H-isoquinoline-4,1′-cyclopropane]-2-yl)-N-[1-(2,2,2-trifluoroethyl)piperidin-4-yl]acetamide]
[1]
  pIC50: 4.95

## Cc1nc(NC(=O)CN2CC3(CC3)c3cc(Br)ccc3C2=O)nn1C [Example 376, 2-(6-bromo-1-oxospiro[3H-isoquinoline-4,1′-cyclopropane]-2-yl)-N-(1,5-dimethyl-1,2,4-triazol-3-yl)acetamide]
[1]
  pIC50: 5.74

## O=C(CN1CC2(CC2)c2cc(Br)ccc2C1=O)Nc1noc2ccccc12 [Example 377, N-(1,2-benzoxazol-3-yl)-2-(6-bromo-1-oxospiro[3H-isoquinoline-4,1′-cyclopropane]-2-yl)acetamide]
[1]
  pIC50: 5.65

## CCOC(=O)N1CCC(NC(=O)CN2CC3(CC3)c3cc(Br)ccc3C2=O)CC1 [Example 378, ethyl 4-[[2-(6-bromo-1-oxospiro[3H-isoquinoline-4,1′-cyclopropane]-2-yl)acetyl]amino]piperidine-1-carboxylate]
[1]
  pIC50: 5.30

## O=C(CN1CC2(CC2)c2cc(Br)ccc2C1=O)NC1CCN(c2ccccn2)CC1 [Example 379, 2-(6-bromo-1-oxospiro[3H-isoquinoline-4,1′-cyclopropane]-2-yl)-N-(1-pyridin-2-ylpiperidin-4-yl)acetamide]
[1]
  pIC50: 5.05

## O=C(CN1CC2(CC2)c2cc(Br)ccc2C1=O)NC1CCN(c2ncccn2)CC1 [Example 380, 2-(6-bromo-1-oxospiro[3H-isoquinoline-4,1′-cyclopropane]-2-yl)-N-(1-pyrimidin-2-ylpiperidin-4-yl)acetamide]
[1]
  pIC50: 4.94

## O=C(CN1CC2(CC2)c2cc(Br)ccc2C1=O)N[C@@H]1CCN(C2COC2)C1 [Example 381, 2-(6-bromo-1-oxospiro[3H-isoquinoline-4,1′-cyclopropane]-2-yl)-N-[(3R)-1-(oxetan-3-yl)pyrrolidin-3-yl]acetamide]
[1]
  pIC50: 4.92

## COCC1CC(NC(=O)CN2CC3(CC3)c3cc(Br)ccc3C2=O)C1 (stereo not drawn) [Example 382, 2-(6-bromo-1-oxospiro[3H-isoquinoline-4,1′-cyclopropane]-2-yl)-N-[3-(methoxymethyl)cyclobutyl]acetamide]
[1]
  pIC50: 5.06

## O=C(CN1CC2(CC2)c2cc(Br)ccc2C1=O)Nc1cc2ccccn2n1 [Example 383]
[1]
  pIC50: 5.91

## CCN1CC[C@@H](NC(=O)CN2CC3(CC3)c3cc(Br)ccc3C2=O)C1 [Example 384, 2-(6-bromo-1-oxospiro[3H-isoquinoline-4,1′-cyclopropane]-2-yl)-N-[(3R)-1-ethylpyrrolidin-3-yl]acetamide]
[1]
  pIC50: 4.94

## O=C(CN1CC2(CC2)c2cc(Br)ccc2C1=O)Nc1cn2ccccc2n1 [Example 385]
[1]
  pIC50: 5.74

## O=C(CN1CC2(CC2)c2cc(Br)ccc2C1=O)Nc1nc2c(o1)CCCC2 [Example 386, 2-(6-bromo-1-oxospiro[3H-isoquinoline-4,1′-cyclopropane]-2-yl)-N-(4,5,6,7-tetrahydro-1,3-benzoxazol-2-yl)acetamide]
[1]
  pIC50: 5.84

## O=C(CN1CC2(CC2)c2cc(Br)ccc2C1=O)NC1CCN(c2cccnn2)CC1 [Example 387, 2-(6-bromo-1-oxospiro[3H-isoquinoline-4,1′-cyclopropane]-2-yl)-N-(1-pyridazin-3-ylpiperidin-4-yl)acetamide]
[1]
  pIC50: 5.28

## Cc1c(C#N)cnc(NC(=O)CN2CC3(CC3)c3cc(Br)ccc3C2=O)c1F [Example 389, 2-(6-bromo-1-oxospiro[3H-isoquinoline-4,1′-cyclopropane]-2-yl)-N-(5-cyano-3-fluoro-4-methylpyridin-2-yl)acetamide]
[1]
  pIC50: 6.26

## Cc1nc(NC(=O)CN2CC3(CC3)c3cc(Br)ccc3C2=O)c(F)cc1C#N [Example 390, 2-(6-bromo-1-oxospiro[3H-isoquinoline-4,1′-cyclopropane]-2-yl)-N-(5-cyano-3-fluoro-6-methylpyridin-2-yl)acetamide]
[1]
  pIC50: 5.01
